Laboratory results from ChEMBL document CHEMBL3997788, “Virtual screening and experimental validation identify novel modulators of nuclear receptor RXRα from Drugbank database” (Bioorg Med Chem Lett, 2017).
Calls of active or inactive are those of the source. No cut-off for these calls is given here.

How the values were obtained:
[1] = biological target: T1, Retinoic acid receptor RXR-alpha (Homo sapiens) (UniProt P19793); assay: Antagonist activity at Myc-tagged RXRalpha (unknown origin) expressed in human MCF-7 cells assessed as inhibition of 9-cis-RA induced receptor transactivation at 10 uM after 24 hrs by luciferase reporter gene assay; assay type: cell-based
T1 sequence (whole entry): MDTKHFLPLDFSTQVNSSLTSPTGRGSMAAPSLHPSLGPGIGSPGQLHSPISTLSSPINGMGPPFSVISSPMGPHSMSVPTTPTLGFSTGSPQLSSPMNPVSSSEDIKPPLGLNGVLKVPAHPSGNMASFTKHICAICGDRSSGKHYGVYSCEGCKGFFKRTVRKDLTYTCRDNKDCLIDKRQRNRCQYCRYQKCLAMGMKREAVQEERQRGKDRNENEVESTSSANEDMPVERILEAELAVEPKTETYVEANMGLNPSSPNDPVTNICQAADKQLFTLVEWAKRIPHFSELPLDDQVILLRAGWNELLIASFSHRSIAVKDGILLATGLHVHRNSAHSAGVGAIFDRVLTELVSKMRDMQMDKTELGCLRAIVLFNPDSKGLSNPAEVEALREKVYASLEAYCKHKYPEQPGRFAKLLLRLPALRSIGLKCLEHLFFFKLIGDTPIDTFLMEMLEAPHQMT

[2] = biological target: T2, Retinoic acid receptor RXR-alpha (Homo sapiens, UniProt P19793); assay: Binding affinity to RXRalpha-LBD (unknown origin) measured up to 120 sec by surface plasma resonance method
T2 sequence (P19793 whole entry): T1 sequence (whole entry)

[3] = biological target: T1, Retinoic acid receptor RXR-alpha (Homo sapiens); assay: Agonist activity at Myc-tagged RXRalpha (unknown origin) expressed in human MCF-7 cells assessed as receptor transactivation at 10 uM after 24 hrs by luciferase reporter gene assay; assay type: cell-based
[4] = biological target: T1, Retinoic acid receptor RXR-alpha (Homo sapiens); assay: Agonist activity at Myc-tagged RXRalpha (unknown origin) expressed in human MCF-7 cells assessed as increase in 9-cis-RA induced receptor transactivation at 5 to 10 uM after 24 hrs by luciferase reporter gene assay; assay type: cell-based
[5] = biological target: T1, Retinoic acid receptor RXR-alpha (Homo sapiens); assay: Agonist activity at Myc-tagged RXRalpha (unknown origin) expressed in human MCF-7 cells assessed as increase in 9-cis-RA induced receptor transactivation at 1 uM after 24 hrs by luciferase reporter gene assay; assay type: cell-based
[6] = biological target: T1, Retinoic acid receptor RXR-alpha (Homo sapiens); assay: Antagonist activity at Myc-tagged RXRalpha (unknown origin) expressed in human MCF-7 cells assessed as inhibition of 9-cis-RA induced receptor transactivation at 1 uM after 24 hrs by luciferase reporter gene assay; assay type: cell-based
[7] = biological target: T1, Retinoic acid receptor RXR-alpha (Homo sapiens); assay: Antagonist activity at Myc-tagged RXRalpha (unknown origin) expressed in human MCF-7 cells assessed as inhibition of 9-cis-RA induced receptor transactivation at 100 nM after 24 hrs by luciferase reporter gene assay; assay type: cell-based
[8] = biological target: T1, Retinoic acid receptor RXR-alpha (Homo sapiens); assay: Antagonist activity at Myc-tagged RXRalpha (unknown origin) expressed in human MCF-7 cells assessed as inhibition of 9-cis-RA induced receptor transactivation after 24 hrs by luciferase reporter gene assay; assay type: cell-based

Question: How did the inhibition [1] turn out when `Clc1ccc(CCC(Cn2ccnc2)Sc2c(Cl)cccc2Cl)cc1` (stereo not drawn) was run?
Answer: Active

Question: How did the inhibition [1] turn out when `O=C1[C@H](CC[C@H](O)c2ccc(F)cc2)[C@@H](c2ccc(O)cc2)N1c1ccc(F)cc1` was run?
Answer: Active

Question: For `CC[C@H](C)C(=O)O[C@H]1C[C@@H](O)C=C2C=C[C@H](C)[C@H](CC[C@@H](O)C[C@@H](O)CC(=O)O)[C@H]21`, which inhibition [1] is on record?
Answer: inactive

Question: `CC(C)c1nc(N(C)S(C)(=O)=O)nc(-c2ccc(F)cc2)c1/C=C/[C@@H](O)C[C@@H](O)CC(=O)O` was tested. Which inhibition [1] did it give?
Answer: Active

Question: Which results are given for `O=C1C=CCC(/C=C/c2c(C3CC3)nc3ccccc3c2-c2ccc(F)cc2)O1` (stereo not drawn)?
Answer: inhibition [1]: inactive; Kd [2]: 138 µM

Question: For `O=c1[nH]c2ccccc2n1CCCN1CCC(n2c(=O)[nH]c3cc(Cl)ccc32)CC1` [DOMPERIDONE], which Kd [2] is on record?
Answer: 8.8 µM

Question: What about the Activity [3] of the same compound?
Answer: inactive

Question: What about the Activity [4] of the same compound?
Answer: Active

Question: And the Activity [5]?
Answer: inactive

Question: Which inhibition [1] does the source give for `O=C(O)C[C@H](O)C[C@H](O)/C=C/c1c(C2CC2)nc2ccccc2c1-c1ccc(F)cc1` [PITAVASTATIN CALCIUM] here?
Answer: Active

Question: And the Kd [2]?
Answer: 13.3 µM

Question: What about the inhibition [6] of the same compound?
Answer: Active

Question: How did the Activity [3] turn out when `CN(CCOc1ccc(CC2SC(=O)NC2=O)cc1)c1ccccn1` (stereo not drawn) was run?
Answer: inactive

Question: And the Activity [4]?
Answer: Active

Question: What about the Activity [5] of the same compound?
Answer: inactive

Question: How did the inhibition [1] turn out when `O=C1CCc2cc(OCCCCc3nnnn3C3CCCCC3)ccc2N1` was run?
Answer: Active

Question: Which inhibition [1] does the source give for `CC1=C(C)C(=O)C(C(CCCCCC(=O)O)c2ccccc2)=C(C)C1=O` (stereo not drawn) here?
Answer: Active

Question: `O=C(O)/C=C/C=C/C=C/c1c(C2CC2)nc2ccccc2c1-c1ccc(F)cc1` was tested. Which Kd [2] did it give?
Answer: 5.12 µM

Question: And the inhibition [7]?
Answer: Active

Question: Which inhibition [1] does the source give for `CC(C)n1c(/C=C/C(O)CC(O)CC(=O)O)c(-c2ccc(F)cc2)c2ccccc21` (stereo not drawn) [FLUVASTATIN] here?
Answer: Active

Question: And the Kd [2]?
Answer: 11 µM

Question: What about the inhibition [8] of the same compound?
Answer: Dose-dependent effect
